Drawing on US9926282B2, “Phthalazinones and isoquinolinones as rock inhibitors” (BRISTOL-MYERS SQUIBB COMPANY, priority 2013, dated 2018), this text covers IC50 for 22 compounds.

In one assay the target is ROCK2 (Homo sapiens (Human), UniProt O75116). Put plainly: ROCK assay (LABCHIP peptide phosphorylation), ROCK2. It is filed as biochemical. The note with it: 5 μM ATP, 1.5 μM peptide substrate.
The next assay has as its target ROCK1 (Homo sapiens (Human), UniProt Q13464). Briefly: ROCK assay (LABCHIP peptide phosphorylation), ROCK1. It is filed as biochemical. The note with it: 5 μM ATP, 1.5 μM peptide substrate; read-out: ROCK1 IC50.

Counter-ions that a name gives are not always drawn.

Chain of ROCK1 (Q13464 whole entry, species assumed): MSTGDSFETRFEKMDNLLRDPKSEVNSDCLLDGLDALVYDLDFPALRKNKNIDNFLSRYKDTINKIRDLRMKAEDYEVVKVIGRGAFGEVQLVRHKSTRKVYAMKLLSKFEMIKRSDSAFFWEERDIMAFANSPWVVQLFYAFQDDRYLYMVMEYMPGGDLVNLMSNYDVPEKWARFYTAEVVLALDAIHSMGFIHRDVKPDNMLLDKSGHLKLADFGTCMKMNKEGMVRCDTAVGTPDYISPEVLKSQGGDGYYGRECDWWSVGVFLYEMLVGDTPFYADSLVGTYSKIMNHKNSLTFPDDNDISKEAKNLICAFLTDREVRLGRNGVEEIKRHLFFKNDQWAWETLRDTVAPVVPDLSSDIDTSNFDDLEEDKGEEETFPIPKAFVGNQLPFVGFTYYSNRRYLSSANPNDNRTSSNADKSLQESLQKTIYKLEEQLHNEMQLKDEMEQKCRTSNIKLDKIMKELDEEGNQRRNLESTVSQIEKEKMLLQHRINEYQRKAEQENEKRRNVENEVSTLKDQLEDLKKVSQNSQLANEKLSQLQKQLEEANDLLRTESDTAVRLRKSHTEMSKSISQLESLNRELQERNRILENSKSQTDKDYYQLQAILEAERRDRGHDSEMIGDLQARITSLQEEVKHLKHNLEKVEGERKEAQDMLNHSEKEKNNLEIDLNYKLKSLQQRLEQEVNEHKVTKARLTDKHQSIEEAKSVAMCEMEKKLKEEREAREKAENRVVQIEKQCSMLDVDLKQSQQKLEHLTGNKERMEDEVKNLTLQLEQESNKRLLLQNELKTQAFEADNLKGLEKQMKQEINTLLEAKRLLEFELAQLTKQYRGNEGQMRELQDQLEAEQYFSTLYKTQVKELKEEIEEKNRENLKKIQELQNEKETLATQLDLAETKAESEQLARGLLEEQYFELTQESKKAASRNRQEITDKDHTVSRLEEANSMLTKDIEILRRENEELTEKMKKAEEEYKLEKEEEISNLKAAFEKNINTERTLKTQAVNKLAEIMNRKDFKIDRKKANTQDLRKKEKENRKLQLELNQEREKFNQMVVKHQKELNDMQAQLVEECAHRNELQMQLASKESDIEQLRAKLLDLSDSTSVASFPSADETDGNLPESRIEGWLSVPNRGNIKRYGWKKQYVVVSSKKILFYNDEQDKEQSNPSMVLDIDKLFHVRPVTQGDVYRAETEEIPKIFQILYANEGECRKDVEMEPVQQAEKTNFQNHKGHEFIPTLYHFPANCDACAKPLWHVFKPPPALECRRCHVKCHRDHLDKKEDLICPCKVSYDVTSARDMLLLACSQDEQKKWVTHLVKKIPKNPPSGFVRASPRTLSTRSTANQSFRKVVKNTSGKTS
Chain of ROCK2 (O75116 whole entry, species assumed): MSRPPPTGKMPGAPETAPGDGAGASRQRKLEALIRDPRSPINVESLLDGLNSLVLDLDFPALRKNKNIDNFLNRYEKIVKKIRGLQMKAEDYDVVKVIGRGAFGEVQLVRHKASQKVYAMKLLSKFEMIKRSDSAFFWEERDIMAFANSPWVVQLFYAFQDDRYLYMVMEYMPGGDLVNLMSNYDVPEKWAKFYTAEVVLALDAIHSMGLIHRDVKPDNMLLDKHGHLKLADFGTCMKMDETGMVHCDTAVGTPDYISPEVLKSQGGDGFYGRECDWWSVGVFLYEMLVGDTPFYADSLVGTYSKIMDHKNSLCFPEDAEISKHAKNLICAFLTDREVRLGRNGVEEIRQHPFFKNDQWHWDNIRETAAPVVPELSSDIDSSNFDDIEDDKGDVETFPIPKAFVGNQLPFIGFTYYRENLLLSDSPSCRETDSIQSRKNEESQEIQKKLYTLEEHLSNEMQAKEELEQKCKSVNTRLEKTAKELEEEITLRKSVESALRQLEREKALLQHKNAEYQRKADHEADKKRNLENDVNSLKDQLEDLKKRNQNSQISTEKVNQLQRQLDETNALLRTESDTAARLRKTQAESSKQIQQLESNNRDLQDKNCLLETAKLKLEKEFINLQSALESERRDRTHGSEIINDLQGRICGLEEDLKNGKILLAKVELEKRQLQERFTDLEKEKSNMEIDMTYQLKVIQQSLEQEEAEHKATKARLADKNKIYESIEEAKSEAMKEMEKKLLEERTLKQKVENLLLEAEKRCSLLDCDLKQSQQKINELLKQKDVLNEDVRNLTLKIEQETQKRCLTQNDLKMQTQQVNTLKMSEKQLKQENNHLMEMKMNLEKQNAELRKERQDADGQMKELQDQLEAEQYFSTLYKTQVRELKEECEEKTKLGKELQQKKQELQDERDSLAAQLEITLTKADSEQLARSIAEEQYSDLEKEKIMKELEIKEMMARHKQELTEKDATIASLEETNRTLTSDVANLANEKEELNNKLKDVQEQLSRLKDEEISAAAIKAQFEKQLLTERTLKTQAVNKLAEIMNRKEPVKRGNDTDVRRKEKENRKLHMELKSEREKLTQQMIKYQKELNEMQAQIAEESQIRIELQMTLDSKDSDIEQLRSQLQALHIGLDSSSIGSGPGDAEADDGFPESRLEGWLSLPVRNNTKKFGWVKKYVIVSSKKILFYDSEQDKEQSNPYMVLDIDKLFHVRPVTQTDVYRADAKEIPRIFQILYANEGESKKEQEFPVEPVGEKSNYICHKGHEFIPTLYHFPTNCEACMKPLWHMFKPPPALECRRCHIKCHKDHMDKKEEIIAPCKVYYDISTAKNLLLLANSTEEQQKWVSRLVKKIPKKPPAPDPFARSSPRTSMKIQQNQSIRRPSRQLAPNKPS

As for `O=C(Nc1ccc(-c2n[nH]c(=O)c3ccccc23)cc1)c1cnn(C2COC2)c1` [Example 389, 1-(Oxetan-3-yl)-N-(4-(4-oxo-3,4-dihydrophthalazin-1-yl)phenyl)-1H-pyrazole-4-carboxamide], the figures for the IC50 at ROCK2 and at ROCK1 were 0.1 to 100 nM and 101 to 1000 nM, respectively.
Take `COC(=O)N1CCC(Cn2nc(C(=O)Nc3ccc(-c4n[nH]c(=O)c5ccccc45)cc3)c3ccccc32)CC1` [Example 344, Methyl 4-((3-((4-(4-oxo-3,4-dihydrophthalazin-1-yl)phenyl)carbamoyl)-1H-indazol-1-yl)methyl)piperidine-1-carboxylate]: the IC50 against ROCK2 and on ROCK1 was 0.1 to 100 nM in each case.
For the compound `Cc1cc(NC(=O)c2c[nH]c3ncc(F)cc23)ccc1-c1n[nH]c(=O)c2ccccc12` [Example 308, 5-fluoro-N-[3-methyl-4-(4-oxo-3,4-dihydrophthalazin-1-yl)phenyl]-1H-pyrrolo [2,3-b]pyridine-3-carboxamide], the IC50 against ROCK2 and on ROCK1 was 0.1 to 100 nM throughout.
With `Cc1cc(CC(=O)N2Cc3ccccc3C2)ccc1-c1n[nH]c(=O)c2ccccc12` [Example 260, 4-(4-(2-(Isoindolin-2-yl)-2-oxoethyl)-2-methylphenyl)phthalazin-1(2H)-one], the IC50 on ROCK2 was in the range of 0.1 to 100 nM; on ROCK1, 101 to 1000 nM.
Turning to `O=C(Cc1ccc(-c2n[nH]c(=O)c3ccccc23)cc1)N1CCc2ccc(C(F)(F)F)cc21` [Example 35, 4-(4-{2-oxo-2-[6-(trifluoromethyl)-2,3-dihydro-1H-indol-1-yl]ethyl}phenyl)-1,2-dihydrophthalazin-1-one], the IC50 fell in the range of 0.1 to 100 nM against ROCK2 and 101 to 1000 nM on ROCK1.
As for `Cn1ncc(C(=O)Nc2ccc(-c3n[nH]c(=O)c4ccccc34)cc2)c1-c1ccccc1` [Example 192, 1-methyl-N-[4-(4-oxo-3,4-dihydrophthalazin-1-yl)phenyl]-5-phenyl-1H-pyrazole-4-carboxamide], the values for the IC50 on ROCK2 and at ROCK1 were 0.1 to 100 nM and 101 to 1000 nM, respectively.
On the same counts, the results for `CCc1nc2ncccn2c1C(=O)Nc1ccc(-c2n[nH]c(=O)c3ccccc23)cc1` [Example 140, 2-ethyl-N-[4-(4-oxo-3,4-dihydrophthalazin-1-yl)phenyl]imidazo[1,2-a]pyrimidine-3-carboxamide] are 0.1 to 100 nM and 0.1 to 100 nM.
On the same counts, the results for `COc1cc(NC(=O)c2nn(CC(C)(C)O)c3ccccc23)ccc1-c1n[nH]c(=O)c2ccccc12` [Example 345, 1-(2-Hydroxy-2-methylpropyl)-N-(3-methoxy-4-(4-oxo-3,4-dihydrophthalazin-1-yl)phenyl)-1H-indazole-3-carboxamide] are 0.1 to 100 nM and 101 to 1000 nM.
On the same counts, the results for `O=C(Nc1ccc(-c2n[nH]c(=O)c3ccccc23)cc1)c1csc(-c2ccc(C(F)(F)F)cc2)n1` [Example 48, N-[4-(4-oxo-3,4-dihydrophthalazin-1-yl)phenyl]-2-[4-(trifluoromethyl)phenyl]-1,3-thiazole-4-carboxamide] are 0.1 to 100 nM and 101 to 1000 nM.
Take `COCCN1CCC(C(=O)Nc2ccc(-c3n[nH]c(=O)c4ccccc34)cc2)C1` (centres unmarked) [Example 57, 1-(2-methoxyethyl)-N-[4-(4-oxo-3,4-dihydrophthalazin-1-yl)phenyl]pyrrolidine-3-carboxamide]: the IC50 at ROCK2 and at ROCK1 was 1000 to 50000 nM throughout.
For the compound `O=C(Nc1ccc(-c2n[nH]c(=O)c3ccccc23)cc1)c1cnn(-c2ccccc2)c1` [Example 191, N-[4-(4-oxo-3,4-dihydrophthalazin-1-yl)phenyl]-1-phenyl-1H-pyrazole-4-carboxamide], the IC50 at ROCK2 and at ROCK1 was 0.1 to 100 nM each time.
As for `Cc1nc(C(=O)Nc2ccc(-c3n[nH]c(=O)c4ccccc34)cc2)c[nH]1` [Example 242, 2-methyl-N-[4-(4-oxo-3,4-dihydrophthalazin-1-yl)phenyl]-1H-imidazole-4-carboxamide], the figures for the IC50 at ROCK2 and at ROCK1 were 0.1 to 100 nM and 101 to 1000 nM, respectively.
For `CC1Cc2ccccc2N1C(=O)Cc1ccc(-c2n[nH]c(=O)c3ccccc23)cc1` (centres unmarked) [Example 40, 4-{4-[2-(2-methyl-2,3-dihydro-1H-indol-1-yl)-2-oxoethyl]phenyl}-1,2-dihydrophthalazin-1-one], the IC50 against ROCK2 fell in the range of 0.1 to 100 nM; at ROCK1, 101 to 1000 nM.
As to `Cc1cc(NC(=O)c2nn(CC3CNC3)c3ccccc23)ccc1-c1n[nH]c(=O)c2ccccc12` [Example 326, 1-(Azetidin-3-ylmethyl)-N-(3-methyl-4-(4-oxo-3,4-dihydrophthalazin-1-yl)phenyl)-1H-indazole-3-carboxamide, TFA], the IC50 at ROCK2 was in the range of 101 to 1000 nM; on ROCK1 it was 0.1 to 100 nM.
For `CN(C)c1ccc(C(=O)Nc2ccc3c(c2)N(C(=O)Cc2ccc(-c4n[nH]c(=O)c5ccccc45)cc2)CC3)cc1` [Example 300, 4-(Dimethylamino)-N-(1-(2-(4-(4-oxo-3,4-dihydrophthalazin-1-yl)phenyl)acetyl)indolin-6-yl)benzamide], in that order: 0.1 to 100 nM and 0.1 to 100 nM.
With `O=C(c1ccc2c(c1)CCN2C(=O)Cc1ccc(-c2n[nH]c(=O)c3ccccc23)cc1)N1CCC(O)CC1` [Example 294, 4-(4-{2-[5-(4-hydroxypiperidine-1-carbonyl)-2,3-dihydro-1H-indol-1-yl]-2-oxoethyl}phenyl)-1,2-dihydrophthalazin-1-one], the IC50 against ROCK2 is 0.1 to 100 nM; on ROCK1, 101 to 1000 nM.
Regarding `O=C(Nc1ccc(-c2n[nH]c(=O)c3ccccc23)cc1)c1cc2cc(Cl)cnc2[nH]1` [Example 119, 5-chloro-N-[4-(4-oxo-3,4-dihydrophthalazin-1-yl)phenyl]-1H-pyrrolo[2,3-b]pyridine-2-carboxamide], the figures for the IC50 against ROCK2 and at ROCK1 were 0.1 to 100 nM and 101 to 1000 nM, respectively.
Turning to `O=C(Nc1ccc(-c2n[nH]c(=O)c3ccccc23)cc1)c1nn(CC2CCOC2)c2cc(F)ccc12` (centres unmarked) [Example 174, 6-fluoro-N-[4-(4-oxo-3,4-dihydrophthalazin-1-yl)phenyl]-1-(oxolan-3-ylmethyl)-1H-indazole-3-carboxamide], the IC50 against ROCK2 and at ROCK1 was 0.1 to 100 nM each time.
Regarding `Cc1cc(C(=O)Nc2ccc(-c3n[nH]c(=O)c4ccccc34)cc2)nn1-c1ccccc1` [Example 213, 5-methyl-N-[4-(4-oxo-3,4-dihydrophthalazin-1-yl)phenyl]-1-phenyl-1H-pyrazole-3-carboxamide], the IC50 on ROCK2 and on ROCK1 was 0.1 to 100 nM each time.
Turning to `O=C(Nc1ccc(-c2n[nH]c(=O)c3ccccc23)cc1)c1nn(CC2CCCCO2)c2ccccc12` (centres unmarked) [Example 168, 1-(oxan-2-ylmethyl)-N-[4-(4-oxo-3,4-dihydrophthalazin-1-yl)phenyl]-1H-indazole-3-carboxamide], the IC50 on ROCK2 and at ROCK1 was 0.1 to 100 nM each time.
As to `O=C(Nc1ccc(-c2n[nH]c(=O)c3ccccc23)c(Cl)c1)c1nn(CC2CCOC2)c2ccccc12` (centres unmarked) [Example 319, N-[3-chloro-4-(4-oxo-3,4-dihydrophthalazin-1-yl)phenyl]-1-(oxolan-3-ylmethyl)-1H-indazole-3-carboxamide], the half-maximal inhibitory concentration (IC50) on ROCK2 and at ROCK1 was 0.1 to 100 nM throughout.
Consider `O=C(Nc1ccc(-c2n[nH]c(=O)c3ccccc23)cc1)c1cnn(C2CCOC2)c1` (centres unmarked) [Example 390, N-(4-(4-Oxo-3,4-dihydrophthalazin-1-yl)phenyl)-1-(tetrahydrofuran-3-yl)-1H-pyrazole-4-carboxamide], for which the IC50 is 0.1 to 100 nM on ROCK2 and 101 to 1000 nM at ROCK1.

As usually defined, the IC50 is the point on the concentration scale where inhibition reaches its midpoint.
